One may read the Kd as a measure of binding affinity in units of concentration.

“Also recorded” adds a separate entry of the source. Read-outs that look alike come from different tables or passages of the source. Some results are limits rather than exact numbers.

Experiment [1] addresses T1, TB14 (UniProt C9ZDC6+P14779).
T1 construct: 14-aa linker […]; BM3R, reductase domain of P450BM3 (CYP102A1), fusion partner after the linker; inferred from Ni-NTA purification and the pET28b vector; made in house; host or cells: E. coli BL21 (DE3)-GOLD, pET28b-TxtE-BM3R
The experiment is described as follows: Binding affinities of Trp analogues toward TB14 (spectral shift titration). The following applies: for Interaction with TB14 in spectroscopic analysis (in words): Type I spectral shift; for Kd: read-out: TB14 Kd, 1.5 μM enzyme, 25 mM Tris-HCl, pH 8.0. As to the method: (§1) The ferric heme of enzymes was then saturated with carbon monoxide (Airgas) through bubbling and the spectra of the saturated enzyme solutions were recorded. Immediately, sodium dithionite solution (30 μL, 0.5 M) was added to reduce ferric ion, and reduced spectra were taken subsequently. CO reduced difference spectra of all enzymes were created by subtracting the CO binding spectra from the reduced spectra. Data were further analyzed by Excel. […] Not more than 10 μl of substrate stock solutions prepared in the above buffer were added to the sample cuvette with an interval of 0.5 μl, and the spectra were recorded from 300 nm to 500 nm each time. The equal volume of buffer was added to the reference cuvette. The changes in absorbance (AA) were determined by subtracting the absorbance at ˜420 nm from that at ˜390 nm. Data were then fitted to the equation of ΔA=ΔAmax[L]/(Kd+[L]) using GraphPad Prism 4.

The target of experiment [2] is T1, TB14. Description: Nitration of Trp and its analogues by TB14 (45 min, HPLC). In kind it is biochemical. Particulars: FIG. 8; for Nitration activity of TB14 toward the substrate (in words): 0.5 mM substrate, 45 min. As to the method:
(§2) The reactions were prepared and then incubated at 20° C., 300 rpm for 45 minutes. All experiments were repeated at least three times.
(§3) After centrifugation, 10 μl solutions were analyzed by HPLC. […] All reactions were independently repeated at least three times. […] All experiments were performed at least in triplicate.

The target of experiment [3] is T2, TxtE (Streptomyces scabiei, UniProt C9ZDC6). In kind it is biochemical, S. scabies. Set-up: inferred from Ni-NTA purification and the pET28b vector; made in house. The following applies: 0.5 mM substrate, 45 min, FIG. 8. As to the method: as §2, §3
The target in experiment [4] is T2, TxtE. Description: biochemical. In kind it is binding, S. scabies. Set-up: inferred from Ni-NTA purification and the pET28b vector; made in house; host or cells: E. coli BL21 (DE3)-GOLD, pET28b. The following applies: for Interaction with TxtE in spectroscopic analysis (in words): Type I spectral shift. As to the method:
as §1

In experiment [5] the target is T3, TB14 (UniProt C9ZDC6).
T3 construct: 14-aa linker […]; BM3R, reductase domain of P450BM3 (CYP102A1), fusion partner after the linker; inferred from Ni-NTA purification and the pET28b vector; made in house; host or cells: E. coli BL21 (DE3)-GOLD, pET28b-TxtE-BM3R
Description: Binding affinities of Trp analogues toward TB14 (spectral shift titration). Particulars: 1.5 μM enzyme, 25 mM Tris-HCl, pH 8.0. As to the method:
as §1

The mark [6] stands for this setting: read-out: TxtE Kd, 1.5 μM enzyme, 25 mM Tris-HCl, pH 8.0.

With `Cc1cccc2[nH]cc(CC(N)C(=O)O)c12` (racemic) [Example 4-Me-DL-Trp], the “Interaction with TB14 in spectroscopic analysis (in words)” value in experiment [1] is “more tightly than 4-F-DL-Trp”. Further, in experiment [2], the “Nitration activity of TB14 toward the substrate (in words)” value is reported as “good activity” and the “Nitration by TB14 favoured over 4-F-DL-Trp” value is “about 8 times”. In addition, the “Nitration activity of TxtE toward the substrate (in words)” value in experiment [3] is given as “good activity”. In addition, the “Interaction with TxtE in spectroscopic analysis (in words)” value in experiment [4] is “more tightly than 4-F-DL-Trp”.

Take `NC(Cc1c[nH]c2cccc(F)c12)C(=O)O` (racemic) [Example 4-F-Trp, 4-F-DL-Trp]: the Kd was 175 ± 12.9 µM in experiment [1] and 189 ± 11.1 µM in experiment [4] (setting [6]).

On to `O=C(O)C1Cc2c([nH]c3ccccc23)CN1` (stereo not drawn) [2,3,4,9-Tetrahydro-1H-β-carboline-3-carboxynate], for which the Kd in experiment [5] is 731 ± 86 µM; in experiment [4], 579 ± 44.4 µM.

On to `NCCc1c[nH]c2ccc(O)cc12` [Serotonin], for which the Kd in experiment [1] is 310 ± 38.5 µM; in experiment [4] (setting [6]), 322 ± 31.4 µM.

For `O=C(O)Cc1c[nH]c2ccccc12` [3-Indoleacetic acid], the equilibrium dissociation constant (Kd) in experiment [4] was greater than 17000 µM.

On to `COc1ccc2[nH]cc(CC(N)C(=O)O)c2c1` (racemic) [Example 5-MeO-Trp, 5-MeO-DL-Trp], for which the Kd was determined as 25.8 ± 1.84 µM in experiment [5] and 29.1 ± 1.16 µM in experiment [4].

In the case of `O=C(O)c1c[nH]c2ccccc12` [Indole-3-carboxylic acid], the Kd in experiment [4] was greater than 9000 µM.

In the case of `O=C(O)C(=O)Cc1c[nH]c2ccccc12` [Indole-3-pyruvic acid], the Kd in experiment [1] is 478 ± 31.6 µM; in experiment [4] (setting [6]) it was 386 ± 42.5 µM.

For the compound `N[C@@H](Cc1c[nH]c2ccccc12)C(=O)O` [Trp], the “Nitration activity of TB14 toward the substrate (in words)” value in experiment [2] is “nitrated”. Moreover, the “Nitration activity of TxtE toward the substrate (in words)” value in experiment [3] is recorded as “nitrated”.

As to `N[C@H](Cc1c[nH]c2ccccc12)C(=O)O` [D-Trp], the Kd in experiment [5] was 470 ± 25.3 µM; in experiment [4] it was 432 ± 17.2 µM.

In the case of `N[C@@H](Cc1c[nH]c2ccc(O)cc12)C(=O)O` [Example 5-OH-L-Trp, 5-OH-L-Trp], the figures for the Kd in experiment [5] and in experiment [4] were 453 ± 15.5 µM and 341 ± 26.4 µM, respectively.

For the compound `N[C@@H](Cc1c[nH]c2ccc(F)cc12)C(=O)O` [Example 5-F-L-Trp, 5-F-L-Trp], the Kd turned out to be 77.5 ± 5.74 µM in experiment [1] and 84.2 ± 4.37 µM in experiment [4] (setting [6]). The “Nitration activity of TB14 toward the substrate (in words)” value in experiment [2] is “good activity; also recorded: comparable to Trp”. Besides, the “Nitration activity of TxtE toward the substrate (in words)” value in experiment [3] is listed as “good activity; also recorded: best substrate of TxtE”.

For the compound `CC(N)(Cc1c[nH]c2ccccc12)C(=O)O` (racemic) [α-Me-Trp, α-Me-DL-Trp], the Kd in experiment [5] was determined as 94.7 ± 8.52 µM; in experiment [4], 100 ± 4.3 µM.

Regarding `O=C(O)C(O)Cc1c[nH]c2ccccc12` (stereo not shown) [Indole-3-lactic acid], the Kd in experiment [4] is greater than 7000 µM.

For `Cc1cccc2c(CC(N)C(=O)O)c[nH]c12` (racemic) [Example 7-Me-Trp, 7-Me-DL-Trp], the Kd in experiment [5] came out at 10.6 ± 0.75 µM; in experiment [4], 12.9 ± 0.99 µM.

`N[C@H](CO)Cc1c[nH]c2ccccc12` [L-tryptophanol]: the Kd in experiment [5] amounted to 280 ± 43.2 µM; in experiment [4], 221 ± 32.4 µM.

Turning to `Cc1cccc2[nH]cc(CC(N)C(=O)O)c12` (racemic) [Example 4-Me-Tr, 4-Me-DL-Tryptophan], the Kd in experiment [5] amounted to 13.5 ± 0.98 µM; in experiment [4], 9.58 ± 0.36 µM.

Consider `N[C@@H](Cc1c[nH]c2ccccc12)C(=O)O` [L-Trp, L-tryptophan], for which the Kd in experiment [5] stood at 17.4 ± 0.95 µM; in experiment [4] (setting [6]), 24.8 ± 1.11 µM.

As for `c1ccc2[nH]ccc2c1` [indole], the “Interaction with TB14 in spectroscopic analysis (in words)” value in experiment [1] is given as “no detectable level of interaction”. Moreover, the “Interaction with TxtE in spectroscopic analysis (in words)” value in experiment [4] was “no detectable level of interaction”.

Regarding `N[C@@H](Cc1c[nH]c2cc(F)ccc12)C(=O)O` (racemic) [Example 6-F-Trp, 6-F-DL-Trp], the values for the Kd in experiment [1] and in experiment [4] (setting [6]) were 65.3 ± 4.49 µM and 73.4 ± 6.06 µM, respectively. For the same compound, the “Nitration activity of TB14 toward the substrate (in words)” value in experiment [2] is on record as “good activity”. In experiment [3], the “Nitration activity of TxtE toward the substrate (in words)” value is “good activity”.

As to `Cc1ccc2[nH]cc(CC(N)C(=O)O)c2c1` (racemic) [Example 5-Me-Trp, 5-Me-DL-Trp], the Kd came to 29.9 ± 1.03 µM in experiment [5] and 34.7 ± 0.99 µM in experiment [4]. Further, the “Nitration activity of TB14 toward the substrate (in words)” value in experiment [2] is “good activity”. The “Nitration activity of TxtE toward the substrate (in words)” value in experiment [3] is given as “good activity”.

As to `N[C@@H](Cc1c[nH]c2ncccc12)C(=O)O` [7-Azatryptophan], the Kd in experiment [5] stood at 25.5 ± 0.58 µM; in experiment [4] (setting [6]) it was 16.8 ± 0.28 µM.

As for `NCCc1c[nH]c2ccccc12` [Tryptamine], the Kd came to 59.8 ± 7.88 µM in experiment [1] and 68.4 ± 6.19 µM in experiment [4] (setting [6]).
